Target: melatonin receptor
Assay: Action of inhibiting 2-[^125 I]iodomelatonin binding
Parameters: species or system chicken (white leghorn)
Conditions: forebrain membranes of 7-day-old chickens; 80 pM 2-[^125 I]iodomelatonin; 90 minutes at 25° C., pH 7.7; read-out: IC50, inhibition of 2-[^125 I]iodomelatonin binding
Protocol: The forebrains of 7-day-old chickens (white leghorn) were homogenized with ice-cooled assay-buffer (50 mM Tris-HCl, pH 7.7, at 25° C.) and centrifuged at 44,000×g for 10 minutes to give pellet. The pellet was washed once with the same buffer solution, which was further homogenized with the assay-buffer to make a protein concentration of 0.3-0.4 mg/mL. The homogenate was used as a membrane sample. In a test tube, the membrane sample and a ligand (80 pM 2-[^125 I]iodomelatonin,ca. 100,000 dpm) were mixed to make the whole volume 0.5 mL. The mixture was incubated for 90 minutes at 25° C., to which was added 3 mL of ice-cooled assay buffer, immediately followed vacuum filtration on Whatman GF/B which was further washed twice with 3 mL each of ice-cold assay buffer. The radioactivity on the filter was determined by means of gamma-counter. Specific binding was calculated by subtracting the non-specific binding which was determined in the presence of 10 μM melatonin. The 50% inhibiting concentration (IC50) was determined by the log-probit analysis.

IC50: 87 pM
SMILES: COc1ccc2c(c1)C(CCNC(=O)C(F)(F)F)=C(c1ccccc1)C2 [Working Example 1, 2,2,2-Trifluoro-N-[2-(5-methoxy-2-phenyl-1H-inden-3-yl)ethyl]acetamide]

Source: patent US5922771A, “Benzocycloalkene compounds, their production and use” (Takeda Chemical Industries, Ltd., priority 1995, dated 1999)
